In ChEMBL document CHEMBL2321853, “Novel acylethanolamide derivatives that modulate body weight through enhancement of hypothalamic pro-opiomelanocortin (POMC) and/or decreased neuropeptide Y (NPY)” (J Med Chem, 2013):
The source made the active and inactive calls. No cut-off for these calls is given here.

Tests used:
Mus musculus [1] = experiment: Antiobesity activity in Sabra mouse assessed as change in body weight at 1 mg/kg, ip administered on day 8, 12 and 43 measured on day 54 relative to control; type: functional; details: route intraperitoneal
Mus musculus [2] = experiment: Antiobesity activity in Sabra mouse assessed as reduction in body weight at 10 mg/kg, ip administered on day 6 to 10 measured on day 16 relative to control; type: functional; parameters: scale not given: the % may be the effect or the level left; details: route intraperitoneal
Mus musculus [3] = experiment: Antiobesity activity in Sabra mouse assessed as change in body weight at 1 mg/kg, ip administered on day 8, 9, 10, 11, 14, 18, 24 and 32 measured on day 14 relative to control; type: functional; details: route intraperitoneal
Mus musculus [4] = experiment: Antiobesity activity in Sabra mouse assessed as reduction in body weight at 1 mg/kg, ip administered on day 0, 10, 11, 12, 24, 29 measured on day 19 relative to control; type: functional; parameters: scale not given: the % may be the effect or the level left; details: route intraperitoneal
Mus musculus [5] = experiment: Antiobesity activity in C57BL/6 mouse assessed as weight loss at 5 mg/kg, ip administered on day 1, 4, 5, 7, 17, 15, 19 measured on day 3 relative to control; type: functional; details: route intraperitoneal
Mus musculus [6] = experiment: Antiobesity activity in Sabra mouse assessed as change in body weight at 1 mg/kg, ip administered on day 8, 12 and 43 measured on day 15 relative to control; type: functional; details: route intraperitoneal
Mus musculus [7] = experiment: Antiobesity activity in Sabra mouse assessed as change in body weight at 1 mg/kg, ip administered on day 8, 9, 10, 11, 14, 18, 24 and 32 measured on day 9 relative to control; type: functional; details: route intraperitoneal
Hypothalamus [8] = experiment: Effect on 5HT1A gene expression in Sabra mouse hypothalamus assessed as change in mRNA level at 1 mg/kg, ip administered on day 8, 9, 10, 11, 14, 18, 24 and 32 by RT-PCR analysis relative to GAPDH; type: functional; details: route intraperitoneal
Mus musculus [9] = experiment: Antiobesity activity in high fat diet fed C57BL/6 mouse assessed as reduction in body weight at 1 mg/kg, ip administered on day 3, 6, 8, 9, 10 measured on day 8 relative to control; type: functional; parameters: scale not given: the % may be the effect or the level left; details: route intraperitoneal
Mus musculus [10] = experiment: Antiobesity activity in Sabra mouse assessed as change in body weight at 1 mg/kg, ip administered on day 8, 9, 10, 11, 14, 18, 24 and 32 measured on day 4 relative to control; type: functional; details: route intraperitoneal
Mus musculus [11] = experiment: Antiobesity activity in Sabra mouse assessed as reduction in body weight at 1 mg/kg, ip administered on day 0, 10, 11, 12, 24, 29 measured on day 29 relative to control; type: functional; parameters: scale not given: the % may be the effect or the level left; details: route intraperitoneal
Mus musculus [12] = experiment: Antiobesity activity in C57BL/6 mouse assessed as weight loss at 5 mg/kg, ip administered on day 1, 4, 5, 7, 17, 15, 19 measured on day 8 relative to control; type: functional; details: route intraperitoneal
Mus musculus [13] = experiment: Enhancement of motor activity C57BL/6 mouse assessed as reduction food consumption at 1 mg/kg, ip administered on day 3, 6, 8, 9, 10 measured on day 10; type: functional, organism-based; parameters: dose 1 mg/kg
Mus musculus [14] = experiment: Antiobesity activity in C57BL/6 mouse assessed as weight loss at 5 mg/kg, ip administered on day 1, 4, 5, 7, 17, 15, 19 measured on day 17 relative to control; type: functional; details: route intraperitoneal
Mus musculus [15] = experiment: Antiobesity activity in leptin-deficient ob/ob mouse assessed as reduction in body weight at 10 mg/kg via oral gavage; type: functional, organism-based; parameters: dose 10 mg/kg
Hypothalamus [16] = experiment: Decrease in 2-AG level in Sabra mouse hypothalamus at 8 mg/kg, ip for 39 days (reference value: 100 +/- 7 %); type: functional; parameters: scale not given: the % may be the effect or the level left; details: route intraperitoneal
Mus musculus [17] = experiment: Antiobesity activity in Sabra mouse assessed as reduction in body weight at 1 mg/kg, ip administered on day 0, 10, 11, 12, 24, 29 measured on day 22 relative to control; type: functional; parameters: scale not given: the % may be the effect or the level left; details: route intraperitoneal
Mus musculus [18] = experiment: Increase in motor activity Sabra mouse at 1 mg/kg, ip administered on day 8, 9, 10, 11, 14, 18, 24 and 32 measured on day 14 by open field test; type: functional, organism-based; parameters: dose 1 mg/kg
Hypothalamus [19] = experiment: Effect on POMC gene expression in ip dosed Sabra mouse hypothalamus assessed as increase in mRNA level administered on day 6 to 10 measured on day 16 by RT-PCR analysis relative to control; type: functional, organism-based
Mus musculus [20] = experiment: Enhancement of motor activity in Sabra mouse at 10 mg/kg, ip administered on day 6 to 10 by open field test relative to control; type: functional; details: route intraperitoneal
Mus musculus [21] = experiment: Hepatotoxicity in Sabra mouse assessed as ischemic changes at 1 mg/kg, ip administered on day 8, 9, 10, 11, 14, 18, 24 and 32 by hematoxylin and eosin staining-based histopathological analysis; type: toxicity, organism-based; parameters: dose 1 mg/kg, route intraperitoneal; details: in vivo
Mus musculus [22] = experiment: Antiobesity activity in high fat diet fed C57BL/6 mouse assessed as reduction in body weight at 1 mg/kg, ip administered on day 3, 6, 8, 9, 10 measured on day 10 relative to control; type: functional; parameters: scale not given: the % may be the effect or the level left; details: route intraperitoneal
Mus musculus [23] = experiment: Increase in ALT levels in Sabra mouse at 1 mg/kg, ip administered on day 8, 12 and 43 measured on day 74; type: ADME, organism-based; parameters: dose 1 mg/kg, route intraperitoneal; details: in vivo
Mus musculus [24] = experiment: Antiobesity activity in C57BL/6 mouse assessed as change in glucose level in blood at 5 mg/kg, ip administered on day 1, 4, 5, 7, 17, 15, 19 measured on day 3 relative to control; type: functional; details: route intraperitoneal
[25] = biological target: T1, Fatty-acid amide hydrolase 1 (Rattus norvegicus) (UniProt P97612); experiment: Inhibition of rat brain FAAH using [3H]anandamide as substrate at 10 uM preincubated for 15 mins before substrate addition relative to control
T1 sequence (whole entry): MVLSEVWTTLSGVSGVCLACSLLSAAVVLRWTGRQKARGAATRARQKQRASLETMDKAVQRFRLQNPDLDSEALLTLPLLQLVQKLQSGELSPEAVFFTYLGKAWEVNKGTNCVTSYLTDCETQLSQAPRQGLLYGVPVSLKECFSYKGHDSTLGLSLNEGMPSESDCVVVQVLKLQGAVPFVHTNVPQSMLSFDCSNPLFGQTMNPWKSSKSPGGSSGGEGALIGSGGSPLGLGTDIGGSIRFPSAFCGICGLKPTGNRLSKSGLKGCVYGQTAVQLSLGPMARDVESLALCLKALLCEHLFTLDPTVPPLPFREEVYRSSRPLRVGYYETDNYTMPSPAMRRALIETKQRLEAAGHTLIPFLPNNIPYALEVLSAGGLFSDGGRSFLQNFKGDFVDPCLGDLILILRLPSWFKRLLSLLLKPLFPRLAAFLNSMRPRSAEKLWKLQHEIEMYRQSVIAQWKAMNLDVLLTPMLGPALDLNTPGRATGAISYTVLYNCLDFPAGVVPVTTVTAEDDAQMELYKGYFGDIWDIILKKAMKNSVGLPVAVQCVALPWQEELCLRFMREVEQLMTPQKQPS

Mus musculus [26] = experiment: Antiobesity activity in C57BL/6 mouse assessed as weight loss at 5 mg/kg, ip administered on day 1, 4, 5, 7, 17, 15, 19 measured on day 15 relative to control; type: functional; details: route intraperitoneal
Mus musculus [27] = experiment: Antiobesity activity in Sabra mouse assessed as reduction in body weight at 10 mg/kg, administered for 6 to 51 days via oral gavage measured on day 52 relative to control; type: functional, organism-based; parameters: dose 10 mg/kg

CCCCCCCC/C=C\CCCCCCCC(=O)N[C@H](CO)C(C)C
Activity (Mus musculus [1]): -8.2%
Activity (Mus musculus [2]): 6.4%
Activity (Mus musculus [3]): -1.8%
Activity (Mus musculus [4]): -1.85%
Activity (Mus musculus [5]): -2.6%
Activity (Mus musculus [6]): -2.2%
Activity (Mus musculus [7]): -2.2%
Activity (Hypothalamus [8]): -20%
Activity (Mus musculus [9]): -3.2%
Activity (Mus musculus [10]): 0.5%
Activity (Mus musculus [11]): -5.98%
Activity (Mus musculus [12]): -4.6%
Activity (Mus musculus [13]): Active
Activity (Mus musculus [14]): -3.6%
Activity (Mus musculus [15]): inactive
Activity (Hypothalamus [16]): 44.5%
Activity (Mus musculus [17]): -3.06%
Activity (Mus musculus [18]): Active
Activity (Hypothalamus [19]): Dose-dependent effect
Activity (Mus musculus [20]): 30%
Activity (Mus musculus [21]): Non-toxic
Activity (Mus musculus [22]): -6.3%
Activity (Mus musculus [23]): Not Active
Activity (Mus musculus [24]): -2.7%
inhibition [25]: 14%
Activity (Mus musculus [26]): -4.7%
Activity (Mus musculus [27]): Active
